Data on three compounds can be found in ChEMBL document CHEMBL5137028, “Progress and Challenges in Targeting the SARS-CoV-2 Papain-like Protease” (J Med Chem, 2022).

The subject of the assay is SARS-CoV-2. Put plainly: Antiviral activity against SARS-CoV-2 nCoV-2019BetaCoV/Wuhan/WIV04/2019 infected in African green monkey Vero E6 cells assessed as viral growth inhibition pretreated for 1 hr followed by infection at MOI of 0.01 and replacement of fresh medium containing compound measured after 24 hrs by plaque reduction assay. In kind it is functional, organism-based. The note with it: Severe acute respiratory syndrome coronavirus 2, nCoV-2019BetaCoV/Wuhan/WIV04/2019, Vero C1008. Background: Plaque reduction counts the foci of infection that form in a cell layer.
One may read the EC50 as the concentration needed to bring the measured effect to its halfway point. Consider `C[C@H]1COC2=C1C(=O)C(=O)c1c2ccc2c1CCCC2(C)C` [CRYPTOTANSHINONE], for which the EC50 turned out to be 700 nM.

For `COCC[n+]1c2c(n(Cc3cnccn3)c1C)C(=O)c1ccccc1C2=O` [SEPANTRONIUM BROMIDE], the EC50 is 170 nM.

With `Cc1coc2c1C(=O)C(=O)c1c-2ccc2c(C)cccc12` [TANSHINONE I], the concentration giving a half-maximal response (EC50) was 2260 nM.
